# According to patent publication US9642859B2, “Use of capsazepine and analogs thereof to treat cancer” (THE BOARD OF REGENTS OF THE UNIVERSITY OF TEXAS SYSTEM, priority 2012, dated 2017):
# pIC50, pKi: −log10 of the molar value. Read-outs that look alike come from different tables or passages of the source.
# Columns and labels:
# TRPM8 [1] = molecular target: T1, TRPM8 (Homo sapiens, UniProt Q7Z2W7); conditions: cited from earlier work
# Target sequence in this assay (Q7Z2W7 whole entry, species assumed): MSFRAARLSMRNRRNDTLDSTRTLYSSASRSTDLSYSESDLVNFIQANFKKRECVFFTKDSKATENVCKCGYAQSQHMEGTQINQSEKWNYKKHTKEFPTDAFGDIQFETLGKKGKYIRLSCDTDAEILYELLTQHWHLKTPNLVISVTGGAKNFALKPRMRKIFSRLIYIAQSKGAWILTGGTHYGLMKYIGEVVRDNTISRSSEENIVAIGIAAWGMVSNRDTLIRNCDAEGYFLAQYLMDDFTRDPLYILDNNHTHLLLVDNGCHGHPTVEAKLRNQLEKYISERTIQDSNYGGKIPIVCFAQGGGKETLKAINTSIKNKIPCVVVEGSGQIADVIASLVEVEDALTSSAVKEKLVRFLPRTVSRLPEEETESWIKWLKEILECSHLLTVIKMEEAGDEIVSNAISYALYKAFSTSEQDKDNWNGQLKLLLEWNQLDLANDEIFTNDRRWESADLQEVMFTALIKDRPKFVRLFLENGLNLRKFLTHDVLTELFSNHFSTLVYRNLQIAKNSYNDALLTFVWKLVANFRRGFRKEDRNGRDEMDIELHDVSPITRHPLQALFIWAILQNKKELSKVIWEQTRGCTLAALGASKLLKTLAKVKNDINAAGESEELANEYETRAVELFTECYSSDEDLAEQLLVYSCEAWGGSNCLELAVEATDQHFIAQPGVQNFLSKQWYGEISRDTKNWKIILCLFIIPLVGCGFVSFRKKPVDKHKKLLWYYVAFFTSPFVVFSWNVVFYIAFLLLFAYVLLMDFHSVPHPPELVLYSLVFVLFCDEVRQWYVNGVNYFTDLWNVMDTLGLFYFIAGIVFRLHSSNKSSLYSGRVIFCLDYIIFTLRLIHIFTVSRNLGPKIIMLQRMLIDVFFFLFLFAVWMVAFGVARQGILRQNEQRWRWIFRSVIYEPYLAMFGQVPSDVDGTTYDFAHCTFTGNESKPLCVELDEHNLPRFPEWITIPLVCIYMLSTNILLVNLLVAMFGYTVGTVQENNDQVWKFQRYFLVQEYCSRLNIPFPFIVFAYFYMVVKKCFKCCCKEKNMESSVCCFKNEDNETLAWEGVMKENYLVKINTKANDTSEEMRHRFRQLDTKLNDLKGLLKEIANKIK
# TRPA1 [2] = molecular target: T2, TRPA1 (Homo sapiens, UniProt O75762); conditions: cited from earlier work
# Target sequence in this assay (O75762 whole entry, species assumed): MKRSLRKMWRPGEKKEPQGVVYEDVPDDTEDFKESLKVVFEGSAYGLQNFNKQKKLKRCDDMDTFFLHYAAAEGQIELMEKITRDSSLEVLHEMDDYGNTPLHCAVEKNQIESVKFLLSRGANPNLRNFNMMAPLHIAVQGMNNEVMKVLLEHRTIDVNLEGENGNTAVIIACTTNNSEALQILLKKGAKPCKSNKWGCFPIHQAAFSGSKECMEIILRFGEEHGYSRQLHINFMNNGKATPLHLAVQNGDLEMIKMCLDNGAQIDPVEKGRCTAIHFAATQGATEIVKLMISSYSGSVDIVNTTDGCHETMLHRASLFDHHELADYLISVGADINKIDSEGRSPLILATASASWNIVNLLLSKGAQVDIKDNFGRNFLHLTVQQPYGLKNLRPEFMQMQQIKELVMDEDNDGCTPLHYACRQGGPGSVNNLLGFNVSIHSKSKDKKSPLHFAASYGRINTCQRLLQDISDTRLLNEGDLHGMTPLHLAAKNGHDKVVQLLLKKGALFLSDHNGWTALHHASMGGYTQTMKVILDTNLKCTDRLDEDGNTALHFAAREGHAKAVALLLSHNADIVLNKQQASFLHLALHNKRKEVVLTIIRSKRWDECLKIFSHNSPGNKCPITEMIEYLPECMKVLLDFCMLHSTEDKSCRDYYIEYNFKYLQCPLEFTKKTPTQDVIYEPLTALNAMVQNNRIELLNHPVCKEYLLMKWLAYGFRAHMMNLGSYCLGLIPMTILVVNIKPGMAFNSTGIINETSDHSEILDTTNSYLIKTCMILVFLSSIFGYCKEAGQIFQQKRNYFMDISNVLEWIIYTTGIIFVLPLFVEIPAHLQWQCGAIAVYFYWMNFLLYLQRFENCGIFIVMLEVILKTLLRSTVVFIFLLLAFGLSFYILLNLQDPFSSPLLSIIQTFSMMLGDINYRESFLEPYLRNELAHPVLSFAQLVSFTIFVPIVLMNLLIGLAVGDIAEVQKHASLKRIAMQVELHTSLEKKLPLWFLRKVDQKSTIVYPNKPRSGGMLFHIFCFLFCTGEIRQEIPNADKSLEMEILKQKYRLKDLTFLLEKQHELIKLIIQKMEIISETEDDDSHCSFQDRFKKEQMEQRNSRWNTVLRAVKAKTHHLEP
# [3] = system: CFA-induced thermal hyperalgesia; conditions: cited from earlier work
# [4] = system: MDA231 breast cancer cells; experiment: Cell viability assay of MDA231 cells with and without NAC; assay type: cell-based, human; conditions: 10 mM NAC
# [5] = system: PC3 prostate cancer cells; experiment: Cell viability assay of PC3 cells with and without NAC; assay type: cell-based, human; conditions: 10 mM NAC, prostate cancer cells
# OSCC cell lines = experiment: ROS assays by flow cytometry (DCF-DA); assay type: cell-based, human; conditions: 1 h
# Experimental: FIGS. 1I-1 to 1I-3. Reactive oxygen species (ROS) assays. The level of ROS in OSCC cell lines was examined by flow cytometry using 2,7-dichlorodihydrofluorescein diacetate (DCFH-DA; Sigma). Approximately 3×10^5 cells were plated in 12-well plates. To detect ROS, cells were incubated for 30 min at 37° C. with DCF-DA, washed and then treated for 1 h with 30 μM capsazepine (grey, thick line), 150 μM capsaicin (grey, thin line), 30 μM capsazepine+150 μM capsaicin (black line), or vehicle control (dotted line). The cells were harvested, washed twice, and analyzed by flow cytometry.
# FIGS. 1I-4(a)-(b) to 1I-6(a)-(b). Induction of ROS in OSCC cell lines. (a). ROS induction in OSCC cell lines following 1 h treatment with 30 μM CPZ (black line) compared to vehicle control. (b). ROS induction in OSCC cell lines following 1 h treatment with 30 μM CPZ is reversed by NAC co-treatment (black line) as indicated in the shift in their peaks to the left.
# ROS levels in OSCC cell lines were examined by flow cytometry using 2,7-dichlorodihydrofluorescein diacetate (DCF-DA; Sigma-Aldrich, St. Louis, Mo.). Cells (3×10^5) were plated in 12-well plates and incubated for 30 min with DCF-DA at 37° C. then treated with 30 μM capsazepine using phenol free media with and without 10 mM NAC. Treated cells were incubated for 1 h at 37° C., harvested, washed twice, and analyzed by FACS.
# [6] = system: OSCC cell lines (HSC3, SCC4, and SCC25)
# Experimental: Cell viability assays reported as % of vehicle control (n=3). […] VEH=delivery vehicle control without CAP or CPZ. *p<0.05, ***p<0.001.
# FIG. 1H-1: Cell viability assays of OSCC cell lines treated with 30 μM CPZ alone or in combination with 10 mM N-Acetyl-L-Cysteine (NAC) for 24 h (n=4); ***p<0.001.
# Human OSCC Cell Lines. The human OSCC cell lines MDA231, PS3, SCC4 and SCC25 were obtained from ATCC (American Type Culture Collection, Rockville, Md.). The HSC3 cell line was obtained from the Japanese Cell Resource Bank (Osaka, Japan). […] Cells were maintained in DMEM (GIBCO, Carlsbad, Calif.) supplemented with 10% FBS at 37° C. in 5% CO2. Both cell lines were derived from primary OSCC tumors from the tongues of male patients in their fifth generation of life. Data regarding pertinent medical history, treatment, outcome of care and recurrence were not available.
# Statistical Analysis. Statistical analyses were performed using GraphPad Prism4 (San Diego, Calif.). Experiments were performed in triplicate and results are represented as means+SD except when indicated. […] Cytotoxicity assays of cell viability were analyzed by one-way ANOVA and Bonferroni's post-hoc test (n=3).
# TRPV3 = TRPV3 (Homo sapiens, UniProt Q8NET8); conditions: read-out: hIC50 at TRPV3; cited from earlier work
# Sequence of TRPV3 (Q8NET8 whole entry): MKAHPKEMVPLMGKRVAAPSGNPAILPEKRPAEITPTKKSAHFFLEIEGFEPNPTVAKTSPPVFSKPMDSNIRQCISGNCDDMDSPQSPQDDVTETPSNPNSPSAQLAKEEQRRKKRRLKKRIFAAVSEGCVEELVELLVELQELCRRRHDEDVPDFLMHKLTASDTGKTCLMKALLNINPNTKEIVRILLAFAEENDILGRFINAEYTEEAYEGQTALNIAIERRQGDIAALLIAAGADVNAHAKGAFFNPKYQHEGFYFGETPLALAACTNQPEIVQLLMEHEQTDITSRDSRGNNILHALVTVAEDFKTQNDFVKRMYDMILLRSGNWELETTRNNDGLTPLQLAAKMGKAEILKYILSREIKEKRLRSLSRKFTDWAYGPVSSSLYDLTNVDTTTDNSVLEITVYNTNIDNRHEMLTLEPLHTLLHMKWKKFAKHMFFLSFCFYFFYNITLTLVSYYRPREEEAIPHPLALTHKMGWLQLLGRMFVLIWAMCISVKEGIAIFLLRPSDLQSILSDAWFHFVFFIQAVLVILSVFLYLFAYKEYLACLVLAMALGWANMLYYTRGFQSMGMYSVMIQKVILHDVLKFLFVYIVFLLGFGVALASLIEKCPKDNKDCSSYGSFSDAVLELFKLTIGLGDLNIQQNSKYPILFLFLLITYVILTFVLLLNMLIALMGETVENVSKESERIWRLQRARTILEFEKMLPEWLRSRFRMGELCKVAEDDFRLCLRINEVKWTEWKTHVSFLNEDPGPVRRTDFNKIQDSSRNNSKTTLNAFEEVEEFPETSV
# TRPV4 = TRPV4 (Homo sapiens, UniProt Q9HBA0); conditions: read-out: hIC50 at TRPV4; cited from earlier work
# Sequence of TRPV4 (Q9HBA0 whole entry): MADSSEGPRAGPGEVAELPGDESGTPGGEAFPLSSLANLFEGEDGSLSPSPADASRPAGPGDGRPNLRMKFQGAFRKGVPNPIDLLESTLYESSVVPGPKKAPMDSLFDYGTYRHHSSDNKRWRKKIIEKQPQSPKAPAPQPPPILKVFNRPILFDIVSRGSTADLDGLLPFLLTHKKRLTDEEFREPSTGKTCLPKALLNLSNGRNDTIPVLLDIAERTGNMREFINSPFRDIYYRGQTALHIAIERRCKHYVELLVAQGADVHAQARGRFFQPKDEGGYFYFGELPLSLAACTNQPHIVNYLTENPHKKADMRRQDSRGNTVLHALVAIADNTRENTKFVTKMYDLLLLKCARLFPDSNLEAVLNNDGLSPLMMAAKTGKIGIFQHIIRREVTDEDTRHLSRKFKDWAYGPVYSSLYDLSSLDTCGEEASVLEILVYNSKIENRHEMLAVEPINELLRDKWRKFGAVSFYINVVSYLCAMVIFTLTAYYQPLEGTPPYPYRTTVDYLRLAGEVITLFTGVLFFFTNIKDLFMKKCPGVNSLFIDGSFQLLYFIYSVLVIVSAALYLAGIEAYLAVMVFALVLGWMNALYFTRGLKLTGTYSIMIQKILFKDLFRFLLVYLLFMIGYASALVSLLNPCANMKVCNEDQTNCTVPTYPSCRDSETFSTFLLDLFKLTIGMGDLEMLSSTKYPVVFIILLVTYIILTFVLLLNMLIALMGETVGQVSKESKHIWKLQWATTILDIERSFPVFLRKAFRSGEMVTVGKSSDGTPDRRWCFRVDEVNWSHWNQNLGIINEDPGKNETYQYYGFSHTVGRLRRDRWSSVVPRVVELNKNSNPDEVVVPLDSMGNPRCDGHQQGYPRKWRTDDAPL
# TRPA1 [7] = molecular target: T2, TRPA1; conditions: read-out: hIC50 at TRPA1; cited from earlier work
# Target sequence in this assay (O75762 whole entry): as the sequence (O75762 whole entry, species assumed) above
# TRPM8 [8] = molecular target: T1, TRPM8; conditions: read-out: hIC50 at TRPM8; cited from earlier work
# Target sequence in this assay (Q7Z2W7 whole entry): as the sequence (Q7Z2W7 whole entry, species assumed) above
# [9] = system: CFA-induced mechanical hyperalgesia; conditions: cited from earlier work
# [10] = system: partial nerve-ligation model; conditions: cited from earlier work
# HSC3 cells = experiment: Cell viability assay of HSC3 cells, dose response curve; assay type: cell-based; conditions: Homo sapiens, HSC-3, HSC3 cells, FIG. 1K
# Text: FIG. 1K. Cell viability assay of HSC3 cells treated with increasing concentrations of curcumin; […]
# OKF6 cells = experiment: Cell viability assay of immortalized non-malignant oral keratinocytes; assay type: cell-based; conditions: CAP 150 μM, 24 hours
# Text: FIG. 1D-2. […] Treatment with high concentrations of CAP induces death of normal, non-malignant OKF6 cells. The effect of which was reversed by the pre-treatment with CPZ.
# [11] = system: OSCC cell lines (HSC3, SCC4, and SCC25); experiment: Calcium imaging of OSCC cell lines; assay type: cell-based, human
# Experimental: FIGS. 1J-1 to 1J-2. FIGS. 1J-1(a) to (c): […] FIGS. 1J-2(a) to (c): […] Arrow indicates time point when treatment was added. […] This was due to the toxic effects of this high capsaicin concentration which permeablized the cell membrane allowing calcium to flow freely […] the cell. This was not reversed by capsazepine. […] These finding confirm that activation of TRPV1 is not the mechanism by which cell death is induced using capsazepine.
# [12] = system: immortalized human bronchiolar epithelial cell line transformed with a TRPV1 insert; conditions: TRPV1-overexpressing cultured cells, treatment with CAP; cited from earlier work
# TRPV1 [13] = molecular target: T3, TRPV1 (Homo sapiens, UniProt Q8NER1); conditions: read-out: hIC50 (45Ca2+ uptake); cited from earlier work
# Target sequence in this assay (Q8NER1 whole entry): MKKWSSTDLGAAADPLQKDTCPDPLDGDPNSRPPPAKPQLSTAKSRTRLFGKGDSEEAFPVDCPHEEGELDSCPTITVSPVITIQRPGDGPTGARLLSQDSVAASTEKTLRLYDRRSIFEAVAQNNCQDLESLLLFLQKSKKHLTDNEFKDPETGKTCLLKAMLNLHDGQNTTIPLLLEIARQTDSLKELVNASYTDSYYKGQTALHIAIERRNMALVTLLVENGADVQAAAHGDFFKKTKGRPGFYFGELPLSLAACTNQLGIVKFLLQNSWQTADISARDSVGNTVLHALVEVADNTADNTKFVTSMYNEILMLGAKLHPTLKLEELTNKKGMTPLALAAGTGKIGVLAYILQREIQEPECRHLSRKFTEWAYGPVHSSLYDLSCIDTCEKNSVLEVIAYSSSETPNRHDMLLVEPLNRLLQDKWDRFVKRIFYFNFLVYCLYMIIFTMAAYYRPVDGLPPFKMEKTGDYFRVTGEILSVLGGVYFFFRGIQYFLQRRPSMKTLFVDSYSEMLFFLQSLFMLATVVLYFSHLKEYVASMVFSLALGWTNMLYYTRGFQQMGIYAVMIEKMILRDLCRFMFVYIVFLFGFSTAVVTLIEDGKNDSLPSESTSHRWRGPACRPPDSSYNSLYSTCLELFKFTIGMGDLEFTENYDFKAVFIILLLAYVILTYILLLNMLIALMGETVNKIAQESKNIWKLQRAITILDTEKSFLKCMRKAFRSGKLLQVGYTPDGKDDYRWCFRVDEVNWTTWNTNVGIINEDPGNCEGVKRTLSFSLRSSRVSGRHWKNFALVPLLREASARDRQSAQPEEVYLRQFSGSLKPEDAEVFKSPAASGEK
# [14] = cited from earlier work
# [15] = system: capsaicin-evoked flare and acute heat-evoked pain; conditions: Phase I; cited from earlier work
# [16] = rats, 30 mg per kg, orally; cited from earlier work
# bone-cancer pain = conditions: in vivo model of bone-cancer pain; cited from earlier work
# [17] = system: carrageenan-induced thermal hyperalgesia; conditions: cited from earlier work
# TRPV1 [18] = molecular target: T3, TRPV1; conditions: read-out: hKi (FLIPR); cited from earlier work
# Target sequence in this assay (Q8NER1 whole entry): as above
# [19] = system: TRPV4 and other TRP channels; conditions: cited from earlier work
# TRPV1 [20] = molecular target: T3, TRPV1; conditions: cited from earlier work
# Target sequence in this assay (Q8NER1 whole entry, species assumed): as the sequence (Q8NER1 whole entry) above
compound,measurement,setting,value
O=C(NCc1ccc(C(F)(F)F)cc1)Nc1cccc2cnccc12 [A-425619],pIC50,TRPM8 [1],5.10
same,pIC50,TRPA1 [2],< 5.00
same,"ED50, CFA-induced thermal hyperalgesia",[3]; in vivo,10 mg per kg
"CC(=O)N[C@@H](CS)C(=O)O [NAC, N-Acetyl-L-Cysteine]",effect of NAC on the effects of CPZ,[4],reverse significantly
same,effect of NAC on the effects of CPZ,[5],reverse significantly
same,ROS induction by 30 μM CPZ with NAC co-treatment,OSCC cell lines; 10 mM NAC,reversed
same,effect of NAC on the effects of CPZ,"[6]; 10 mM NAC, all OSCC cell lines tested",reverse significantly
CC(C)(C)c1ccc(/C=C/C(=O)Nc2ccc3c(c2)OCCO3)cc1 [AMG-9810],pIC50,TRPV3,< 5.40
same,pIC50,TRPV4,< 5.40
same,pIC50,TRPA1 [7],< 5.40
same,pIC50,TRPM8 [8],< 5.40
same,CFA-induced thermal hyperalgesia,[3]; 30 mg per kg,Inhibits
same,CFA-induced mechanical hyperalgesia,[9]; 100 mg per kg,Inhibits
Cc1nc2cc(C(C)C)c(-c3ccc(Cl)c(OCC4CC4)c3)cc2c(=O)[nH]1 [Compound 26],reversal of CFA-induced mechanical hyperalgesia,"[9]; 30 mg per kg, orally",60%
same,reversal of mechanical hyperalgesia,[10],57%
"COc1cc(CNC(=O)CCCC/C=C/C(C)C)ccc1O [CAP, capsaicin]",pIC50,HSC3 cells,~3.82
same,"cell viability of normal, non-malignant cells",OKF6 cells,induces death
same,level of ROS,OSCC cell lines; 150 μM capsaicin,increase in ROS
same,calcium influx,[11]; 20 μM capsaicin,fails to cause an influx of calcium
same,calcium flow,[11]; 150 μM capsaicin (cytotoxic level),calcium outflow occurred over a prolonged period of time
same,cell viability / cytotoxic effects,"[6]; 30 μM, 24 hrs, HSC3, SCC4, SCC25",does not
same,cell viability,"[6]; 150 μM, HSC3, SCC4 and SCC25",significantly reduces cell viability
same,apoptosis,[12],did result in apoptosis
AMG 517,pIC50,TRPV1 [13],9.05
same,block of CFA-induced thermal hyperalgesia,[3]; at 10 mg per kg,~40%
same,"MED, CFA-induced thermal hyperalgesia",[3]; minimum effective dose,1 mg per kg
same,body temperature increases,"[14]; doses of 2 mg, in one patient",~3 °C
same,hyperthermia,"[14]; seen at 0.3-3 mg/kg, oral administration",up to 1.5 °C
O=C(Nc1ccccc1Br)N[C@@H]1CCN(c2ccc(C(F)(F)F)cn2)C1 [SB-705498],acute heat-evoked pain on non-sensitized skin,[15],reduced
same,capsaicin-evoked flare,[15],reduced
O=C(Nc1ccc(C(F)(F)F)cn1)N1CCN(c2ncccc2C(F)(F)F)CC1 [JNJ-17203212],increase in core body temperature,[16],~1 °C
same,nocifensive behaviors,bone-cancer pain,Attenuates
"CC(C)(C)c1ccc(NC(=O)N2CCN(c3ncccc3Cl)CC2)cc1 [BCTC, N-(4-tertiarybutylphenyl)-4-(3-chloropyridin-2-yl)tetrahydropyrazine-1(2H)-carboxamide]",pIC50,TRPM8 [1],6.84
same,CFA-induced thermal hyperalgesia,"[3]; 3-30 mg per kg, orally",Inhibits
same,CFA-induced mechanical hyperalgesia,"[9]; 3-30 mg per kg, orally",Inhibits
same,tactile allodynia,[10],Reduces
same,thermal hyperalgesia,[10],Reduces
C[C@@H]1CN(c2ncc(C(O)CO)cc2Cl)CCN1c1nc2c(-c3cc(F)c(F)c(F)c3)cc(C(F)(F)F)cc2[nH]1 (stereo partly drawn) [Compound 46ad],pIC50,TRPV1 [13],9.00
same,reversal of CFA-induced thermal hyperalgesia,"[3]; 30 mg per kg, orally",significant reversal
FC(F)(F)c1ccc(Nc2ncnc3cc(-c4ncccc4C(F)(F)F)ccc23)cc1 [Quinazoline analog],block of carrageenan-induced thermal hyperalgesia,[17]; at 3 mg per kg,80%
same,"MED, carrageenan-induced thermal hyperalgesia",[17]; minimum effective dose,0.1 mg per kg
COc1cc(/C=C/C(=O)CC(=O)/C=C/c2ccc(O)c(OC)c2)ccc1O [curcumin],pIC50,HSC3 cells,4.05
COc1cccc(NC(=O)/C=C/c2ccc(Cl)cc2)c1 [SB-366791],pKi,TRPV1 [18],7.74
same,selectivity versus TRPV4 and other TRP channels,[19],Selective
same,capsaicin and heat-mediated activation of TRPV1,TRPV1 [20],Inhibits
